Key:
Echinochloa crus-galli = assay: Herbicidal effect, foliar spray pot test in greenhouse (Example 102); type: in vivo; conditions: sprayed at 2-3 leaf stage, a week after, scale 0-100
Method: (§1) A plastic pot was filled with a commercially-available culture soil, and thereto inubie (common barnyardgrass; Echinochloa crus-galli) or akinoenokorogusa (giant foxtail; Setaria faberi) was seeded, and covered with the soil to about 0.5 cm, followed by growing the weeds in a greenhouse. When the weeds grew to two to three leaf stage, a spray liquid of the compound X, a spray liquid of 2,4-D choline salt, or a spray liquid of the present composition was uniformly sprayed to the whole plants so that the application rate might be a predetermined value. The spray liquid of the present composition was prepared by mixing the spray liquid of the compound X with the spray liquid of 2,4-D choline salt. The spray liquid of the compound X was prepared by mixing a predetermined amount of the formulation X with deionized water. The spray liquid of 2,4-D choline salt was prepared by dissolving 2,4-D choline salt with a 2 wt % solution of TWEEN® 20 (polyoxyethylenesorbitan fatty acid ester, manufactured by MP Biomedicals) in dimethylformamide, followed by mixing with deionized water. After applying the spray liquid, the plants were placed in a greenhouse for a week. A herbicidal effect was evaluated by classifying the effect into 101 stages from 0 (no effect) to 100 (completely dead).
(§2) The expected value of the herbicidal effect in the case of mixed use was calculated from the result of the herbicidal effect in the case of single use of each of the compounds (the value of A or B) according to the formula of Colby ((expected value)=100−(100−A)×(100−B)/100).

Setaria faberi = assay: as above; type: in vivo; conditions: sprayed at 2-3 leaf stage, a week after, scale 0-100
Method: as §1, §2

[1] = 2,4-D choline salt 50 g/ha alone
[2] = 2,4-D choline salt 500 g/ha alone

C[N+](C)(C)CCO.O=C([O-])COc1ccc(Cl)cc1Cl [2,4-D choline salt] was tested, and the “Herbicidal effect on Echinochloa crus-galli (observed value)” value (Echinochloa crus-galli; [1]) was 0, the “Herbicidal effect on Echinochloa crus-galli (observed value)” value (Echinochloa crus-galli; [2]) was 10 and the “Herbicidal effect on Setaria faberi (observed value)” value (“Herbicidal effect on Setaria faberi” for short) (Setaria faberi; [1]) was 0. For the same compound, the “Herbicidal effect on Setaria faberi” value (Setaria faberi; [2]) was 10.
In the case of CCOC(=O)COc1ncccc1Oc1cc(-n2c(=O)cc(C(F)(F)F)n(C)c2=O)c(F)cc1Cl [Compound X, ethyl [3-[2-chloro-4-fluoro-5-(1-methyl-6-trifluoromethyl-2,4-dioxo-1,2,3,4-tetrahydropyrimidin-3-yl)phenoxy]-2-pyridyloxy]acetate], the “Herbicidal effect on Echinochloa crus-galli (observed value)” value (Echinochloa crus-galli; Compound X 5 g/ha alone) is reported as 20, the “Herbicidal effect on Echinochloa crus-galli (observed value)” value (Echinochloa crus-galli; Compound X 10 g/ha alone) is reported as 35 and the “Herbicidal effect on Setaria faberi” value (Setaria faberi; Compound X 5 g/ha alone) is reported as 30. The “Herbicidal effect on Setaria faberi” value (Setaria faberi; Compound X 10 g/ha alone) was 45.
